Data set [1] can be described thus: Serum stability test, monkey serum. The class given is in vitro ADME, cynomolgus monkey. Conditions: male, residual ratio: IS ratio at 4 hours relative to 0 hours, 37° C. The source says:
(§1) • Mouse serum (BALB/c CrSlc, male, Japan SLC, Inc.) • Monkey serum (cynomolgus monkey, male, Japan SLC, Inc.) • Human serum (Caucasian, pool of 5 males and 5 females, KAC Co., Ltd.) • Phenacetin (Nacalai Tesque, Inc.) • Niflumic acid (Nacalai Tesque, Inc.) • Furosemide (Nacalai Tesque, Inc.) • Acetonitrile (FUJIFILM Wako Pure Chemical Corporation) • Methanol (FUJIFILM Wako Pure Chemical Corporation) • Formic acid (FUJIFILM Wako Pure Chemical Corporation) • Dimethyl sulfoxide (DMSO) (FUJIFILM Wako Pure Chemical Corporation)
(§2) Solutions of Phenacetin, niflumic acid, and furosemide were prepared in DMSO at 10 μg/ml, 150 μg/ml, and 200 μg/ml, respectively. 10 μg/ml of phenacetin in DMSO, 150 μg/ml of niflumic acid in DMSO, and 200 μg/ml of furosemide in DMSO were dissolved in a mixture of […]/methanol (75/25, v/v) (final concentrations: phenacetin; 1 ng/mL, niflumic acid: 15 ng/mL, and furosemide 20 ng/mL), and formic acid was added to the prepared test solution (final concentration: 1% (v/v)) to prepare a formic acid-containing IS solution.
(§3) The test substances were prepared in DMSO to a concentration of 10 mM each. Further, the solution was diluted with DMSO to a concentration of 2 mM to make a test substance solution.
(§4) Each serum was preincubated at 37° C. for 5 minutes, and then the test substance solution was added to a final concentration of 20 μM to initiate the reaction. The test substance-added serum was incubated at 37° C. At 0 and 4 hours after the start of the reaction, a portion of the serum was taken out and added to the formic acid-containing IS solution to stop the reaction, which was used as a measurement sample.
(§5) The test substance and IS (phenacetin, niflumic acid, and furosemide) in the measurement sample were measured by LC-MS/MS, and the peak area ratio (IS ratio) of the test substance to IS (any of phenacetin, niflumic acid, and furosemide) was calculated.
(§6) The percentage of the IS ratio at 4 hours after the start of the reaction relative to that at 0 hours after the start of the reaction was used as a residual ratio to evaluate serum stability.

Data set [2] in a line: Serum stability test, human serum. Type of data set: in vitro ADME. The settings on record: both sexes, residual ratio: IS ratio at 4 hours relative to 0 hours, 37° C.
Excerpt: as §1, §2, §3, §4, §5, §6

Data set [3] is described as follows: Serum stability test, mouse serum. Type of data set: in vitro ADME. Conditions: for remaining at 4 h, 20 μM: male, BALB/c CrSlc, mouse, mouse serum, residual ratio: IS ratio at 4 hours relative to 0 hours, 37° C.; for serum stability (in words): statement covers mouse, monkey and human serum, 4 hours.
Excerpt: as §1, §2, §3, §4, §5, §6

Data set [4] relates to C57BL/6 mice, ischemic limb blood flow. Nature of the data set: Blood flow improvement measurement tests (femoral artery/vein ligation and excision, laser Doppler). The class given is in vivo, mouse. The settings on record: for blood flow AUC, % of vehicle group mean: blood flow AUC from beginning to end of measurement, ratio to vehicle-treated group mean; for %, ischemia/nonischemia (blood flow on the last day of measurement): mean ± standard error, ratio of ischemic limb flow to non-ischemic limb flow. An excerpt:
Six to seven-week-old C57BL/6 mice were purchased from Charles River Laboratories Japan Inc., and acclimated over six days by feeding with a FR-2 solid diet (produced by Funabashi Farm Co., Ltd.). The rearing facility switched between light and dark modes in a 12-hour cycle with light turning on at 7 a.m. and turning off at 7 p.m. Under isoflurane inhalation anaesthesia, the left thighs of the mice were dissected, and the superficial femoral arteries and veins (from just below the deep femoral arteries to the popliteal artery and vein) were ligated and excised. […] Five mice were used for each treatment group.
Blood flows were measured in ischemic (left) and non-ischemic (right) limbs using a laser Doppler perfusion imager (PeriScan PIM III, Moor LD12-HR). The improvement of blood flow was evaluated by the ratio of ischemic limb flow to non-ischemic limb flow. […] In addition, blood flow AUC was calculated to determine the ratio (%) of the mean value of the test substance-treated group to the mean value of the vehicle-treated group.

“Also recorded” adds a separate entry of the source. Starred links: 1 amine or outer side, 2 acyl side, 3 side chain; linkers in the order of their positions; H or OH if unused. Positions of bridges follow the written chain, without caps; N, C: chain ends. Non-standard residues stand in square brackets, D forms with d. Residues, ends and D or L forms follow the SMILES beside them. *: point of attachment. X1 = COCCOCCOCCOCCOCCOCCOCCOCCOCCOCCOCC(=O)N[C@@H](CCCCN*)C(=O)NCCOCCOCCOCCOCCOCCOCCOCCOCCOCCOCCOCCOCCC(=O)NCCOCCOCCOCCOCCOCCOCCOCCOCCOCCOCCOCCOCCC(=O)N[C@@H](CCCCNC(=O)CCN1C(=O)CC(C)C1=O)C(N)=O; 2Nal = N[C@@H](Cc1ccc2ccccc2c1)C(=O)O; Gly(cPent) = N[C@H](C(=O)O)C1CCCC1; Agb = N=C(N)NCC[C@H](N)C(=O)O; hCys = N[C@@H](CCS)C(=O)O; CH2 = C([*:1])[*:2]

On to `N=C(N)NCCC[C@@H]1NC(=O)CNC(=O)[C@@H]2CCSSCC[C@H](NC(=O)[C@H](Cc3c[nH]c4ccccc34)NC(=O)[C@H](CC(=O)O)NC1=O)C(=O)N[C@@H](CCCNC(=N)N)C(=O)N[C@@H](Cc1c[nH]c3ccccc13)C(=O)N[C@@H](C1CCCC1)C(=O)N[C@H](C(N)=O)CSCC(=O)N[C@@H](Cc1ccc3ccccc3c1)C(=O)N[C@@H](CCCNC(=N)N)C(=O)N2` [Peptide-11] ({CH2CO}-[2Nal]R[hCys]GRDW[hCys]RW[Gly(cPent)]C-NH2; disulfide 3-8; thioether N-12), for which the amount remaining at 4 h, 20 μM in data set [1] came out at 89.9%; in data set [2] it was 105%; in data set [3] it was 88%. Also, the “serum stability (in words)” value in data set [3] is “high serum stability”.
As to `COCCOCCOCCOCCOCCOCCOCCOCCOCCOCCOCC(=O)N[C@@H](CCCCNC(=O)[C@H](CC(=O)O)NC(=O)[C@H](CC(=O)O)NC(=O)CNC(=O)CNC(=O)CNC(=O)CNC(=O)[C@@H]1CSCC(=O)N[C@@H](Cc2ccc3ccccc3c2)C(=O)N[C@H](CCCNC(=N)N)C(=O)N[C@H]2CCSSCC[C@H](NC(=O)[C@H](Cc3c[nH]c4ccccc34)NC(=O)[C@@H](CC(=O)O)NC(=O)[C@H](CCCNC(=N)N)NC(=O)CNC2=O)C(=O)N[C@H](CCCNC(=N)N)C(=O)N[C@@H](Cc2c[nH]c3ccccc23)C(=O)N[C@@H](C2CCCC2)C(=O)N1)C(=O)NCCOCCOCCOCCOCCOCCOCCOCCOCCOCCOCCOCCOCCC(=O)NCCOCCOCCOCCOCCOCCOCCOCCOCCOCCOCCOCCOCCC(=O)N[C@@H](CCCCNC(=O)CCN1C(=O)CC(C)C1=O)C(N)=O` (some centres unmarked) [Conjugate-4] ({CH2CO}-[2Nal][dR][hCys]GR[dD]W[hCys][dR]W[Gly(cPent)]CGGGGDD-X1; disulfide 3-8; thioether N-12), in data set [4] (0.3 mg/kg), the “blood flow AUC, % of vehicle group mean” value was 263.9% and the “%, ischemia/nonischemia (blood flow on the last day of measurement)” value worked out at 54.5 ± 10.2%. Further, in data set [4] (1 mg/kg), the “blood flow AUC, % of vehicle group mean” value amounted to 346.8% and the “%, ischemia/nonischemia (blood flow on the last day of measurement)” value is reported as 76.1 ± 11.2%.
For the compound `CC(C)[C@@H]1NC(=O)[C@H](Cc2c[nH]c3ccccc23)NC(=O)[C@H](CC(=O)O)NC(=O)[C@H](CCNC(=N)N)NC(=O)CNC(=O)[C@H](CO)NC(=O)[C@H](CCCNC(=N)N)NC(=O)[C@H](Cc2ccc3ccccc3c2)NC(=O)CSC[C@@H](C(N)=O)NC(=O)[C@H](C2CCCC2)NC(=O)[C@H](Cc2c[nH]c3ccccc23)NC(=O)[C@H](CCCNC(=N)N)NC1=O` [Peptide-119], the figures for the share remaining at 4 h, 20 μM in data set [1], in data set [2] and in data set [3] were 21.1%, 88.5% and 70.9%, respectively.
In the case of `N=C(N)NCCC[C@@H]1NC(=O)CNC(=O)[C@@H]2CSCSC[C@H](NC(=O)[C@H](Cc3c[nH]c4ccccc34)NC(=O)[C@H](CC(=O)O)NC1=O)C(=O)N[C@@H](CCCNC(=N)N)C(=O)N[C@@H](Cc1c[nH]c3ccccc13)C(=O)N[C@@H](C1CCCC1)C(=O)N[C@H](C(N)=O)CSCC(=O)N[C@@H](Cc1ccc3ccccc3c1)C(=O)N[C@@H](CCCNC(=N)N)C(=O)N2` [Peptide-130] ({CH2CO}-[2Nal]RCGRDWCRW[Gly(cPent)]C-NH2; linker 3-8 via CH2; thioether N-12), the share remaining at 4 h, 20 μM stood at 93.5% in data set [1], 88% in data set [2] and 98% in data set [3]. Further, the “serum stability (in words)” value in data set [3] is “high serum stability”.
As for `N=C(N)NCCC[C@@H]1NC(=O)[C@H](Cc2ccc3ccccc3c2)NC(=O)CSC[C@@H](C(N)=O)NC(=O)[C@H](C2CCCC2)NC(=O)[C@H](Cc2c[nH]c3ccccc23)NC(=O)[C@H](CCCNC(=N)N)NC(=O)[C@@H]2CCSSCC[C@H](NC1=O)C(=O)NCC(=O)N[C@@H](CCNC(=N)N)C(=O)N[C@@H](CC(=O)O)C(=O)N[C@@H](Cc1c[nH]c3ccccc13)C(=O)N2` [Peptide-9] ({CH2CO}-[2Nal]R[hCys]G[Agb]DW[hCys]RW[Gly(cPent)]C-NH2; disulfide 3-8; thioether N-12), the fraction remaining at 4 h, 20 μM in data set [1] amounted to 93%; in data set [2], 118%; in data set [3] it was 95.8%. Further, in data set [3], the “serum stability (in words)” value is listed as “high serum stability; also recorded: higher serum stability”.
Turning to `N=C(N)NCCC[C@@H]1NC(=O)CNC(=O)[C@@H]2CSSCC[C@H](NC(=O)[C@H](Cc3c[nH]c4ccccc34)NC(=O)[C@H](CC(=O)O)NC1=O)C(=O)N[C@@H](CCCNC(=N)N)C(=O)N[C@@H](Cc1c[nH]c3ccccc13)C(=O)N[C@@H](C1CCCC1)C(=O)N[C@H](C(N)=O)CSCC(=O)N[C@@H](Cc1ccc3ccccc3c1)C(=O)N[C@@H](CCCNC(=N)N)C(=O)N2` [Peptide-126] ({CH2CO}-[2Nal]RCGRDW[hCys]RW[Gly(cPent)]C-NH2; disulfide 3-8; thioether N-12), the share remaining at 4 h, 20 μM in data set [1] is 100%; in data set [2], 99.6%; in data set [3], 98.3%.
For the compound `N=C(N)NCCC[C@@H]1NC(=O)CNC(=O)[C@@H]2CCSCSCC[C@H](NC(=O)[C@H](Cc3c[nH]c4ccccc34)NC(=O)[C@H](CC(=O)O)NC1=O)C(=O)N[C@@H](CCCNC(=N)N)C(=O)N[C@@H](Cc1c[nH]c3ccccc13)C(=O)N[C@@H](C1CCCC1)C(=O)N[C@H](C(N)=O)CSCC(=O)N[C@@H](Cc1ccc3ccccc3c1)C(=O)N[C@@H](CCCNC(=N)N)C(=O)N2` [Peptide-127] ({CH2CO}-[2Nal]R[hCys]GRDW[hCys]RW[Gly(cPent)]C-NH2; linker 3-8 via CH2; thioether N-12), the fraction remaining at 4 h, 20 μM in data set [1] was found to be 95.1%; in data set [2], 97.5%; in data set [3], 90%.
For `N=C(N)NCCC[C@@H]1NC(=O)CNC(=O)[C@@H]2CSCSCC[C@H](NC(=O)[C@H](Cc3c[nH]c4ccccc34)NC(=O)[C@H](CC(=O)O)NC1=O)C(=O)N[C@@H](CCCNC(=N)N)C(=O)N[C@@H](Cc1c[nH]c3ccccc13)C(=O)N[C@@H](C1CCCC1)C(=O)N[C@H](C(N)=O)CSCC(=O)N[C@@H](Cc1ccc3ccccc3c1)C(=O)N[C@@H](CCCNC(=N)N)C(=O)N2` [Peptide-131] ({CH2CO}-[2Nal]RCGRDW[hCys]RW[Gly(cPent)]C-NH2; linker 3-8 via CH2; thioether N-12), the share remaining at 4 h, 20 μM amounted to 89.2% in data set [1], 101% in data set [2] and 89.2% in data set [3]. Moreover, the “serum stability (in words)” value in data set [3] was “high serum stability”.
`CC(C)[C@@H]1NC(=O)[C@H](Cc2c[nH]c3ccccc23)NC(=O)[C@H](CC(N)=O)NC(=O)[C@H](CCNC(=N)N)NC(=O)CNC(=O)[C@H](CO)NC(=O)[C@H](CCCNC(=N)N)NC(=O)[C@H](Cc2ccc3ccccc3c2)NC(=O)CSC[C@@H](C(N)=O)NC(=O)[C@H](C2CCCC2)NC(=O)[C@H](Cc2c[nH]c3ccccc23)NC(=O)[C@H](CCCNC(=N)N)NC1=O` [Peptide-115] ({CH2CO}-[2Nal]RSG[Agb]NWVRW[Gly(cPent)]C-NH2; thioether N-12): the figures for the amount remaining at 4 h, 20 μM in data set [1], in data set [2] and in data set [3] were 14.9%, 78.2% and 64.5%, respectively.
Regarding `N=C(N)NCCC[C@@H]1NC(=O)CNC(=O)[C@@H]2CSSC[C@H](NC(=O)[C@H](Cc3c[nH]c4ccccc34)NC(=O)[C@H](CC(=O)O)NC1=O)C(=O)N[C@@H](CCCNC(=N)N)C(=O)N[C@@H](Cc1c[nH]c3ccccc13)C(=O)N[C@@H](C1CCCC1)C(=O)N[C@H](C(N)=O)CSCC(=O)N[C@@H](Cc1ccc3ccccc3c1)C(=O)N[C@@H](CCCNC(=N)N)C(=O)N2` [Peptide-128] ({CH2CO}-[2Nal]RCGRDWCRW[Gly(cPent)]C-NH2; disulfide 3-8; thioether N-12), the values for the share remaining at 4 h, 20 μM in data set [1], in data set [2] and in data set [3] were 98.6%, 99% and 98.1%, respectively.

These data come from US20250228958A1, “TSP1 INHIBITOR” (Daiichi Sankyo Company, Limited, priority 2022, published 2025).
